Reference: ChEMBL document CHEMBL1201862, “PubChem BioAssay data set” (2004)
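Method: 48-hour compound exposure of cells in 96-well plates, five concentrations, linear interpolation of endpoints. GI50 is the concentration that inhibits growth by half.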 Active and inactive are the calls of the source. Cut-off read from the data, not from the text of the source: active = GI50 up to about 1.1 µM and inactive = higher.

How the values were obtained:
Experiment in all cases: growth of human tumour cells (NCI), 48 h
PC-3 = test system: PC-3
UO-31 = test system: UO-31
NCI/ADR-RES = test system: NCI/ADR-RES
SW-620 = test system: SW-620
MCF7 = test system: MCF7
MDA-MB-435 = test system: MDA-MB-435
MDA-MB-231 = test system: MDA-MB-231
HCT-116 = test system: HCT-116
A549 = test system: A549
SF-268 = test system: SF-268
SF-295 = test system: SF-295
HT-29 = test system: HT-29
NCI-H522 = test system: NCI-H522
786-0 = test system: 786-0
OVCAR-8 = test system: OVCAR-8
IGROV-1 = test system: IGROV-1
T47D = test system: T47D
SK-MEL-28 = test system: SK-MEL-28
SR = test system: SR
EKVX = test system: EKVX
RPMI-8226 = test system: RPMI-8226
CAKI-1 = test system: CAKI-1
NCI-H23 = test system: NCI-H23
SNB-75 = test system: SNB-75
RXF 393 = test system: RXF 393
MDA-N = test system: MDA-N
SF-539 = test system: SF-539
U-251 = test system: U-251
SK-MEL-2 = test system: SK-MEL-2
SNB-19 = test system: SNB-19
A498 = test system: A498
HCC 2998 = test system: HCC 2998
SK-OV-3 = test system: SK-OV-3
NCI-H460 = test system: NCI-H460
M14 = test system: M14
COLO 205 = test system: COLO 205
OVCAR-4 = test system: OVCAR-4
HOP-92 = test system: HOP-92
HOP-62 = test system: HOP-62
UACC-257 = test system: UACC-257
CCRF-CEM = test system: CCRF-CEM
HCT-15 = test system: HCT-15
ACHN = test system: ACHN
NCI-H226 = test system: NCI-H226
MOLT-4 = test system: MOLT-4
Hs-578T = test system: Hs-578T
HL-60 = test system: HL-60
SN12C = test system: SN12C
KM12 = test system: KM12
SK-MEL-5 = test system: SK-MEL-5
TK-10 = test system: TK-10
K562 = test system: K562
OVCAR-5 = test system: OVCAR-5
UACC-62 = test system: UACC-62
Malme-3M = test system: Malme-3M
DU-145 = test system: DU-145
LOX IMVI = test system: LOX IMVI
OVCAR-3 = test system: OVCAR-3

For Cc1ccc(S(=O)(=O)NNC(=O)Nc2ccc(Cl)cc2)cc1, the GI50 (PC-3) was > 100 µM (inactive), the GI50 (UO-31) was > 100 µM (inactive) and the GI50 (NCI/ADR-RES) was > 100 µM (inactive). The GI50 (SW-620) was > 100 µM (inactive), the GI50 (MCF7) was > 100 µM (inactive) and the GI50 (MDA-MB-435) was > 100 µM (inactive). The GI50 (MDA-MB-231) was > 100 µM (inactive), the GI50 (HCT-116) was > 100 µM (inactive) and the GI50 (A549) was > 100 µM (inactive). The GI50 (SF-268) was > 100 µM (inactive), the GI50 (SF-295) was > 100 µM (inactive) and the GI50 (HT-29) was > 100 µM (inactive). The GI50 (NCI-H522) was > 100 µM (inactive), the GI50 (786-0) was > 100 µM (inactive) and the GI50 (OVCAR-8) was > 100 µM (inactive). For the same molecule, the GI50 (IGROV-1) was > 100 µM (inactive), the GI50 (T47D) was > 100 µM (inactive) and the GI50 (SK-MEL-28) was > 100 µM (inactive). The GI50 (SR) was > 100 µM (inactive), the GI50 (EKVX) was > 100 µM (inactive) and the GI50 (RPMI-8226) was > 100 µM (inactive). For the same molecule, the GI50 (CAKI-1) was > 100 µM (inactive), the GI50 (NCI-H23) was > 100 µM (inactive) and the GI50 (SNB-75) was 25.5 µM (inactive). The GI50 (RXF 393) was > 100 µM (inactive), the GI50 (MDA-N) was > 100 µM (inactive) and the GI50 (SF-539) was 54 µM (inactive). The GI50 (U-251) was > 100 µM (inactive), the GI50 (SK-MEL-2) was > 100 µM (inactive) and the GI50 (SNB-19) was > 100 µM (inactive). The GI50 (A498) was > 100 µM (inactive), the GI50 (HCC 2998) was > 100 µM (inactive) and the GI50 (SK-OV-3) was > 100 µM (inactive). For the same molecule, the GI50 (NCI-H460) was > 100 µM (inactive), the GI50 (M14) was > 100 µM (inactive) and the GI50 (COLO 205) was > 100 µM (inactive). For the same molecule, the GI50 (OVCAR-4) was 51.5 µM (inactive), the GI50 (HOP-92) was > 100 µM (inactive) and the GI50 (HOP-62) was > 100 µM (inactive). The GI50 (UACC-257) was > 100 µM (inactive), the GI50 (CCRF-CEM) was > 100 µM (inactive) and the GI50 (HCT-15) was greater than 100 µM. For the same molecule, the GI50 (ACHN) was 6.22 µM (inactive), the GI50 (NCI-H226) was > 100 µM (inactive) and the GI50 (MOLT-4) was > 100 µM (inactive). For the same molecule, the GI50 (Hs-578T) was > 100 µM (inactive), the GI50 (HL-60) was > 100 µM (inactive) and the GI50 (SN12C) was > 100 µM (inactive). The GI50 (KM12) was > 100 µM (inactive), the GI50 (SK-MEL-5) was 53 µM (inactive) and the GI50 (TK-10) was > 100 µM (inactive). For the same molecule, the GI50 (K562) was 4.26 µM (inactive), the GI50 (OVCAR-5) was > 100 µM (inactive) and the GI50 (UACC-62) was > 100 µM (inactive). The GI50 (Malme-3M) was > 100 µM (inactive) and the GI50 (DU-145) was > 100 µM (inactive).
In the case of CCc1ccc2nccc(NCCCN(C)C)c2c1[N+](=O)[O-], the GI50 (PC-3) is reported as 70 µM (inactive), the GI50 (UO-31) is reported as 86.3 µM (inactive) and the GI50 (NCI/ADR-RES) is reported as > 100 µM (inactive). The GI50 (SW-620) was > 100 µM (inactive), the GI50 (MCF7) was 72.9 µM (inactive) and the GI50 (MDA-MB-435) was 62.2 µM (inactive). For the same molecule, the GI50 (MDA-MB-231) was 56.1 µM (inactive), the GI50 (HCT-116) was 41.2 µM (inactive) and the GI50 (A549) was > 100 µM (inactive). The GI50 (SF-268) was > 100 µM (inactive), the GI50 (SF-295) was 75.7 µM (inactive) and the GI50 (HT-29) was 33.4 µM (inactive). The GI50 (NCI-H522) was 74.6 µM (inactive), the GI50 (LOX IMVI) was 62.7 µM (inactive) and the GI50 (786-0) was > 100 µM (inactive). For the same molecule, the GI50 (OVCAR-8) was > 100 µM (inactive), the GI50 (IGROV-1) was > 100 µM (inactive) and the GI50 (T47D) was > 100 µM (inactive). The GI50 (SK-MEL-28) was > 100 µM (inactive), the GI50 (OVCAR-3) was 41.1 µM (inactive) and the GI50 (SR) was > 100 µM (inactive). The GI50 (EKVX) was > 100 µM (inactive), the GI50 (RPMI-8226) was > 100 µM (inactive) and the GI50 (CAKI-1) was 46.6 µM (inactive). For the same molecule, the GI50 (NCI-H23) was > 100 µM (inactive), the GI50 (SNB-75) was 50 µM (inactive) and the GI50 (RXF 393) was 71.8 µM (inactive). For the same molecule, the GI50 (MDA-N) was 64.7 µM (inactive), the GI50 (SF-539) was > 10 µM (inactive) and the GI50 (U-251) was > 100 µM (inactive). For the same molecule, the GI50 (SK-MEL-2) was > 100 µM (inactive), the GI50 (SNB-19) was > 100 µM (inactive) and the GI50 (A498) was > 100 µM (inactive). The GI50 (HCC 2998) was > 100 µM (inactive), the GI50 (SK-OV-3) was > 100 µM (inactive) and the GI50 (NCI-H460) was > 100 µM (inactive). The GI50 (M14) was 28.8 µM (inactive), the GI50 (COLO 205) was 30.7 µM (inactive) and the GI50 (OVCAR-4) was 90.2 µM (inactive). The GI50 (HOP-92) was > 100 µM (inactive), the GI50 (HOP-62) was > 100 µM (inactive) and the GI50 (UACC-257) was 32.3 µM (inactive). The GI50 (CCRF-CEM) was > 100 µM (inactive), the GI50 (HCT-15) was greater than 10 µM and the GI50 (ACHN) was > 100 µM (inactive). The GI50 (NCI-H226) was > 100 µM (inactive), the GI50 (MOLT-4) was > 100 µM (inactive) and the GI50 (Hs-578T) was 30.9 µM (inactive). For the same molecule, the GI50 (HL-60) was > 100 µM (inactive), the GI50 (SN12C) was 60.4 µM (inactive) and the GI50 (KM12) was > 100 µM (inactive). For the same molecule, the GI50 (SK-MEL-5) was 44.3 µM (inactive), the GI50 (TK-10) was > 100 µM (inactive) and the GI50 (K562) was 42.8 µM (inactive). For the same molecule, the GI50 (OVCAR-5) was 33.5 µM (inactive), the GI50 (UACC-62) was > 100 µM (inactive) and the GI50 (Malme-3M) was > 100 µM (inactive). The GI50 (DU-145) was > 100 µM (inactive).
